The text below walks through data of US20140288044A1, “COMPOSITIONS AND THERAPEUTIC USES OF IKK-RELATED KINASE EPSILON AND TANKBINDING KINASE 1 INHIBITORS” (Alzheimer's Institute of America, Inc., priority 2011, published 2014).

Each structure is given as a SMILES string.

In the first experiment the target is T1, IKKε (Homo sapiens, UniProt Q14164).
T1 construct: His-tag (in-house Sf9 preparation) or GST-tag (purchased Invitrogen preparation); these are alternatives, not both on one protein; host or cells: Sf9 cells
T1 sequence (Q14164 1-716): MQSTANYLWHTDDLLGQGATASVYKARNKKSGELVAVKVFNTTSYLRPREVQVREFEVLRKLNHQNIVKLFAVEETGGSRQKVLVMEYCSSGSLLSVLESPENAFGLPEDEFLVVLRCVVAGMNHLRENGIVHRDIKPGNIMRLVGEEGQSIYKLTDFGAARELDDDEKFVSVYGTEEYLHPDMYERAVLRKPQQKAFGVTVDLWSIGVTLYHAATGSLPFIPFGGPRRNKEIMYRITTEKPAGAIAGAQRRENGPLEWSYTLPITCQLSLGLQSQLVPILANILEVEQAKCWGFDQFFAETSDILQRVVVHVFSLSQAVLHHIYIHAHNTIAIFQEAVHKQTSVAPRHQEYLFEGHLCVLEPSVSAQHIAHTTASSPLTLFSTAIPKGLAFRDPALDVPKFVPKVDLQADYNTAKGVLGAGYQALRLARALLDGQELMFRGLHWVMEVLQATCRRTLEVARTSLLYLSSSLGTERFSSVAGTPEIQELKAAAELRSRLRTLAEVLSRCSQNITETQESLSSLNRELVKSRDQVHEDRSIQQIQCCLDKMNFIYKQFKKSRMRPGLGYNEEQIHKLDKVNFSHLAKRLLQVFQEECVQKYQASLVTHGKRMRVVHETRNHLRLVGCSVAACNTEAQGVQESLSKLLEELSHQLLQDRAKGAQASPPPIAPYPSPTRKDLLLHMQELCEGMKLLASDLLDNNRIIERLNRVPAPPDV
Kind of experiment: In-vitro IKKε kinase assay (radiolabelled ATP, filterplate). The note with it: "sensitized" assay; read-out: IC50, inhibition of the kinase activity of IKKε. The class given is biochemical. The method, then: IKKε enzyme was produced as a His-tag fusion in Sf9 cells or purchased as a GST-tag fusion (Invitrogen, Carlsbad, Calif.). TBK1 enzyme was produced as a His-tag fusion in Sf9 cells. Kinase reactions were carried out in reaction buffer using myelin basic protein (Millipore, Ballerica, Mass.), casein or dephosphorylated casein (Sigma, St. Louis, Mo.) as substrate at an ATP concentration equal to twice the Km,ATP value for each enzyme, corresponding to 32 μM ATP for IKKε and 60 μM ATP for TBK1. Radiolabelled [γ^33]ATP (PerkinElmer, Waltham, Mass.) in the amount of […] (IKKe, “normal”) or 0.7 μCi (IKKε, “sensitized”) or 1.25 μCi (TBK1) was added to each assay. Final enzyme concentrations were 0.1 or 0.015 μg/ml (IKKε) and 0.1 or 0.02 μg/ml (TBK1) for the “normal” and “sensitized” assay, respectively, and “sensitized” assays were conducted using only dephosphorylated casein as substrate. Test compounds (or DMSO solvent as a control) were added prior to initiation of the reactions. Reactions were terminated after 30-45 minutes by adding 3% phosphoric acid. Terminated reactions were transferred to P-81 cellulose phosphate filterplates (Whatman, Inc., Piscataway, N.J.) and washed with 1% phosphoric acid on a vacuum apparatus. After air drying, scintillant (PerkinElmer, Waltham, Mass.) was added and the plates were read on a PerkinElmer TopCount NXT instrument. Counts were normalized to DMSO controls after background subtraction.
As to `COc1cc(Nc2nccc(-c3ccc(OC4CCN(C(=O)CO)CC4)c(C#N)c3)n2)ccn1` [Example Compound 222, 2-{[1-(Hydroxyacetyl)piperidin-4-yl]oxy}-5-{2-[(2-methoxypyridin-4-yl)amino]pyrimidin-4-yl}benzonitrile], the IC50 was below 5 nM. In the case of `Cc1cc(Nc2nccc(-c3ccc(O[C@@H]4CCN(C(=O)CO)C4)c(C#N)c3)n2)ccn1` [Example Compound 223, 2-{[(3R)-1-(Hydroxyacetyl)pyrrolidin-3-yl]oxy}-5-{2-[(2-methylpyridin-4-yl)amino]pyrimidin-4-yl}benzonitrile], the IC50 was below 5 nM. Still for that read-out and setting: to `N#Cc1cc(-c2ccnc(Nc3ccnc(N4CC(O)C4)c3)n2)ccc1OCC1CC1` [Example Compound 241, 2-(Cyclopropylmethoxy)-5-(2-{[2-(3-hydroxyazetidin-1-yl)pyridin-4-yl]amino}pyrimidin-4-yl)benzonitrile] belongs below 5 nM.

In the case of `COCCNc1cc(Nc2nccc(-c3ccc(OCC4CC4)c(C#N)c3)n2)ccn1` [Example Compound 245, 2-(Cyclopropylmethoxy)-5-[2-({2-[(2-methoxyethyl)amino]pyridin-4-yl}amino)pyrimidin-4-yl]benzonitrile], the 50% inhibitory concentration (IC50) was below 5 nM. As to `COC1CN(c2cc(Nc3nccc(-c4ccc(OCC5CC5)c(C#N)c4)n3)ccn2)C1` [Example Compound 248, 2-(Cyclopropylmethoxy)-5-(2-{[2-(3-methoxyazetidin-1-yl)pyridin-4-yl]amino}pyrimidin-4-yl)benzonitrile], the IC50 is below 5 nM.

The subject of another experiment is IKKε-mediated phosphorylation of IRF3. Kind of experiment: ELISA for in-situ phosphorylation of IRF3 (phospho-Ser396) in HEK293T cells cotransfected with IRF3 and IKKε. The class given is cell-based. The note with it: Homo sapiens, HEK-293T, 20 h, HEK293T cells, 20 hours; range given from about 1 μM to about 250 nM; read-out: IC50, in-situ IKKε-mediated phosphorylation of IRF3. The method, then:
HEK293T cells were cotransfected in a 10-cm dish with IRF3 and IKKε expression plasmids using Lipofectamine 2000 (Invitrogen, Carlsbad, Calif.). The following day, cells were replated at 20,000 per well in 96-well plates and treated with test compounds (compounds according to Formulae I and/or II) for 20 hours. Cell lysates were prepared and analyzed using an ELISA for phospho-Ser396 (anti-IRF3 capture antibody, Santa Cruz Biotechnology, Inc., Santa Cruz, Calif.; anti-p-Ser396 IRF3 detection antibody, Cell Signaling, Danvers, Mass.). pIRF3 levels in compound treated cells were normalized to DMSO treated cells (no compound). Cell viability was assayed in a parallel set of plates to monitor cytotoxic effects of the test compounds (CellTiter-Glo, Promega, Inc., Madison, Wis.). TBK1 activity was tested by Western blotting using a phospho-specific IRF7 antibody. Similar to above, HEK293T cells were transfected with IRF7 and TBK1 expression plasmids. Cells were seeded in 12-well plates at 150,000 per well and treated overnight with test compounds. Protein lysates were prepared and processed for Western blotting followed by detection using a phosphor-Ser477/Ser479 IRF7 antibody (BD Biosciences, San Jose, Calif.)
On to `COCCNCc1ccc(Nc2nccc(-c3ccc(OC4CCOCC4)c(C#N)c3)n2)cn1` [Example Compound 50, 5-{2-[(6-{[(2-Methoxyethyl)amino]methyl}pyridin-3-yl)amino]pyrimidin-4-yl}-2-(tetrahydro-2H-pyran-4-yloxy)benzonitrile], for which the IC50 fell in the range of 250 to 1000 nM.

On to `CN1CCN(c2ccc(Nc3nccc(-c4ccc(OC5CCOCC5)c(C#N)c4)n3)nn2)CC1` [Example Compound 85, 5-(2-{[6-(4-Methylpiperazin-1-yl)pyridazin-3-yl]amino}pyrimidin-4-yl)-2-(tetrahydro-2H-pyran-4-yloxy)benzonitrile], for which the half-inhibitory concentration (IC50) lay within 250 to 1000 nM. The same measure, in the same setting: to `COc1cc(-c2ccnc(Nc3ccc(CN4CCC4)nc3)n2)cc(C#N)c1OC1CCOCC1` [Example Compound 115, 5-(2-{[6-(Azetidin-1-ylmethyl)pyridin-3-yl]amino}pyrimidin-4-yl)-3-methoxy-2-(tetrahydro-2H-pyran-4-yloxy)benzonitrile] belongs 250 to 1000 nM.

Turning to `Cc1ccc(Nc2nccc(-c3ccc(O[C@@H]4CCN(C(=O)CO)C4)c(C#N)c3)n2)cn1` [Example Compound 118, 2-{[(3R)-1-(Hydroxyacetyl)pyrrolidin-3-yl]oxy}-5-{2-[(6-methylpyridin-3-yl)amino]pyrimidin-4-yl}benzonitrile], the IC50 was in the range of 250 to 1000 nM. As for `N#Cc1cc(-c2ccnc(Nc3ccnc(C(F)(F)F)c3)n2)ccc1O[C@@H]1CCN(C(=O)CO)C1` [Example Compound 122, 2-{[(3R)-1-(Hydroxyacetyl)pyrrolidin-3-yl]oxy}-5-(2-{[2-(trifluoromethyl)pyridin-4-yl]amino}pyrimidin-4-yl)benzonitrile], the IC50 lay in the range of 250 to 1000 nM.

Staying with this experiment, now noted: Homo sapiens, HEK-293T, 20 h, HEK293T cells, 20 hours; read-out: IC50, in-situ IKKε-mediated phosphorylation of IRF3.
Turning to `N#Cc1cc(-c2ccnc(Nc3ccc(N4CCOCC4)nc3)n2)ccc1OC1CCOCC1` [Example Compound 6, 5-(2-{[6-(Morpholin-4-yl)pyridin-3-yl]amino}pyrimidin-4-yl)-2-(tetrahydro-2H-pyran-4-yloxy)benzonitrile], the IC50 is 100 to 250 nM. Same read-out and setting: to `COC1CN(C(=O)c2ccc(Nc3nccc(-c4ccc(OC5CCOCC5)c(C#N)c4)n3)cn2)C1` [Example Compound 31, 5-[2-({6-[(3-Methoxyazetidin-1-yl)carbonyl]pyridin-3-yl}amino)pyrimidin-4-yl]-2-(tetrahydro-2H-pyran-4-yloxy)benzonitrile] belongs 100 to 250 nM.

As for `Cc1nccn1-c1ccc(Nc2nccc(-c3ccc(OC4CCOCC4)c(C#N)c3)n2)cn1` [Example Compound 73, 5-(2-{[6-(2-Methyl-1H-imidazol-1-yl)pyridin-3-yl]amino}pyrimidin-4-yl)-2-(tetrahydro-2H-pyran-4-yloxy)benzonitrile], the IC50 is below 100 nM. On the same count and under the same terms, to `Cn1cc(Nc2nccc(-c3ccc(OC4CCOCC4)c(C#N)c3)n2)cn1` [Example Compound 97, 5-{2-[(1-Methyl-1H-pyrazol-4-yl)amino]pyrimidin-4-yl}-2-(tetrahydro-2H-pyran-4-yloxy)benzonitrile] belongs 1000 to 5000 nM; to `CN1CCN(C(=O)c2ncc(Nc3nccc(-c4ccc(OC5CCOCC5)c(C#N)c4)n3)n2C)CC1` [Example Compound 103, 5-[2-({1-Methyl-2-[(4-methylpiperazin-1-yl)carbonyl]-1H-imidazol-5-yl}amino)pyrimidin-4-yl]-2-(tetrahydro-2H-pyran-4-yloxy)benzonitrile], below 100 nM; to `COC1CN(C(=O)Cc2csc(Nc3nccc(-c4ccc(OC5CCOCC5)c(C#N)c4)n3)n2)C1` [Example Compound 105, 5-[2-({4-[2-(3-Methoxyazetidin-1-yl)-2-oxoethyl]-1,3-thiazol-2-yl}amino)pyrimidin-4-yl]-2-(tetrahydro-2H-pyran-4-yloxy)benzonitrile], 1000 to 5000 nM. Still for that read-out and setting: to `Cc1ccc(Nc2nccc(-c3ccc(OCC4CC4)c(C#N)c3)n2)cn1` [Example Compound 112, 2-(Cyclopropylmethoxy)-5-{2-[(6-methylpyridin-3-yl)amino]pyrimidin-4-yl}benzonitrile] belongs 100 to 250 nM.

With `COc1cc(-c2ccnc(Nc3ccc(CN4CC(OC)C4)nc3)n2)cc(C#N)c1OC1CCOCC1` [Example Compound 116, 3-Methoxy-5-[2-({6-[(3-methoxyazetidin-1-yl)methyl]pyridin-3-yl}amino)pyrimidin-4-yl]-2-(tetrahydro-2H-pyran-4-yloxy)benzonitrile], the 50% inhibitory concentration (IC50) is 100 to 250 nM. As for `CN(C)c1ccc(Nc2nccc(-c3ccc(O[C@@H]4CCN(C(=O)CO)C4)c(C#N)c3)n2)cn1` [Example Compound 124, 5-(2-{[6-(Dimethylamino)pyridin-3-yl]amino}pyrimidin-4-yl)-2-{[1-(hydroxyacetyl)pyrrolidin-3-yl]oxy}benzonitrile], the IC50 is 100 to 250 nM.

For the molecule `Cc1ccc(Nc2nccc(-c3ccc(OC4CCN(C(=O)[C@@H](C)O)CC4)c(C#N)c3)n2)cn1` [Example Compound 129, 2-({1-[(2R)-2-Hydroxypropanoyl]piperidin-4-yl}oxy)-5-{2-[(6-methylpyridin-3-yl)amino]pyrimidin-4-yl}benzonitrile], the IC50 lay within 1000 to 5000 nM. Still for that read-out and setting: to `Cc1ccc(Nc2nccc(-c3ccc(NC(=O)C(C)C)c(C#N)c3)n2)cn1` [Example Compound 136, N-(2-Cyano-4-{2-[(6-methylpyridin-3-yl)amino]pyrimidin-4-yl}phenyl)-2-methylpropanamide] belongs 1000 to 5000 nM.
